Publication PMC4996284 (CNS neuroscience & therapeutics, 2016)

Experiments:
[1] = test system: MCAO-induced focal ischemia; assay: Transient focal ischemia by middle cerebral artery occlusion; assay type: in vivo, mouse; conditions: mice, 1 µl of 500 µM i.c.v. 3h after MCAO (~12 µM); ACSF 49%
rat ASIC1a [2] = molecular target: T1, rat ASIC1a (Rattus norvegicus, UniProt P55926); conditions: potency relative to amiloride
T1 sequence (P55926 1-526): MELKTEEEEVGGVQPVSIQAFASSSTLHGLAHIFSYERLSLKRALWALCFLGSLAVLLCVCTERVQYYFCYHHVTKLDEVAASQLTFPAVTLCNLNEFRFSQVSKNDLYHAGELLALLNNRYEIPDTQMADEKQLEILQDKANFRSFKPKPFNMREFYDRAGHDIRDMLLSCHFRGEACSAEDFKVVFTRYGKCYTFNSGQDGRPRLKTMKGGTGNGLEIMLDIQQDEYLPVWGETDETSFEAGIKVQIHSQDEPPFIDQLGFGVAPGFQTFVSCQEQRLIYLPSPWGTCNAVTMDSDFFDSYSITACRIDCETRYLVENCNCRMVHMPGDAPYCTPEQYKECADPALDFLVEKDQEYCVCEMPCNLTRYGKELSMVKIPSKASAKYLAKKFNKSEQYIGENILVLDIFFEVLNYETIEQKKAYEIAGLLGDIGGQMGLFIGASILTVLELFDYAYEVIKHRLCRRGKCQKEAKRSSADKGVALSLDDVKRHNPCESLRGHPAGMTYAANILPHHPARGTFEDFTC

rat ASIC1a [3] = molecular target: T1, rat ASIC1a; assay: cell-based

SMILES | infarct volume [1] | increased inhibitory activity on ASIC1a currents in comparison with amiloride (rat ASIC1a [2]) | IC50 (rat ASIC1a [3])
NC(=NCc1ccccc1)NC(=O)c1nc(Cl)c(N)nc1N [Benzamil] | 33.75% | ~ 4 fold | 3.5 ± 0.18 µM
CCN(c1nc(N)c(C(=O)NC(=N)N)nc1Cl)C(C)C [EIPA, 5-(N-ethyl-N-isopropyl)amiloride] | – | – | 20.7 ± 2.18 µM
NC(=Nc1ccccc1)NC(=O)c1nc(Cl)c(N)nc1N [Phenamil] | – | ~ 2 fold | 6.95 µM
